{"source": "patent US20120015981A1", "about": "“Active compound combinations” (Bayer CorpScience AG, priority 2009, published 2012)", "test_system": "Microdochium nivale", "experiment": "Microdochium nivale test (lawn)/protective", "type": "in vivo", "settings": "lawn (100% Agrostis stolonifera) in dishes; preventive application at 2000, 1000, 500 and 100 g/ha, 24 hours before inoculation with infected wheat grains; scoring after 5, 7, 14 and 21 days", "description": "Microdochium nivale Test (Lawn)/Protective\nLawn seed (100% Agrostis stolonifera) was sown in dishes of the dimensions 38 cm×15 cm×9 cm. 7 days after sowing, the lawn was cut prior to preventive guanidinium hydroxide application at application rates of 2000, 1000, 500 and 100 g/ha. The water application rates were […] (converted). 24 hours after the preventive application of the active compound, the lawn was inoculated by placing of wheat grains infected with Microdochium nivale. In each case 3 wheat grains were placed into a single dish. Scoring of the subsequent fungal growth in the lawn dishes was carried out after 5, 7, 14 and 21 days. In the dishes which had been treated with guanidinium hydroxide, an inhibition of the growth of Microdochium nivale of up to 30% (Abbott) was observed.", "data": [{"smiles": "N=C(N)N.O", "note": "[guanidinium hydroxide]", "values": [{"measurement": "inhibition of the growth of Microdochium nivale", "result": "up to 30 % (Abbott)"}]}]}
